Experiments:
Assay type in all cases: cell-based
Conditions in all cases: 24 hour incubation, vs vehicle treated cells
[1] = tested on: MOCS2 (molybdenum cofactor synthesis 2); assay: DNA microarray of embryonic chicken liver cells incubated with selenomethionine: MOCS2 expression
Method: (§1) Embryonic chicken kidney and liver cells were obtained from Charles River Laboratories, Inc. Cells were cultured in 75 cc flasks. Each flask represented a treatment group as follows: Control, 1 nM selenomethionine. Treatments consisted of 24 hour incubations with selenomethionine. After that period, samples were processed for microarray analysis. Experiments were performed in triplicate. DNA microarray analyses were performed using a system provided by Agilent. Arrays included four arrays per chip (Agilent 4×44K chip). Total RNA was reverse transcribed (1000 ng) using T7 primers and labeled and transcribed using Cyanine-3 dye. Each array was hybridized with at least 1.65 μg of labeled cRNA at 65° C. for 18 hours. Arrays were scanned using an Agilent array scanner. The microarray platform can determine a minimum of a 1.5 fold change in gene expression. Fold changes between homozygous ZDF rats fed potosaccharide for 28 days vs homozygous ZDF rats fed an equivalent amount of vehicle (control) were examined. In addition, gene expression was measured in heterozygous ZDF (lean rats) fed with vehicle only and compared to gene expression in homozygous ZDF control rats. Fold changes were used to calculate a percent restoration by using the fold changes between homozygous ZDF rats fed potosaccharide and lean control rats.

[2] = tested on: ATOX1 (ATX1 antioxidant protein 1 homolog); assay: DNA microarray of embryonic chicken liver cells incubated with selenomethionine: ATOX1 expression
Method: as §1

[3] = tested on: COX10 (COX10 homolog, cytochrome c oxidase assembly protein, heme A: farnesyltransferase); assay: DNA microarray of embryonic chicken liver cells incubated with selenomethionine: COX10 expression
Method: as §1

[4] = tested on: COX19 (COX19 cytochrome c oxidase assembly homolog); assay: DNA microarray of embryonic chicken liver cells incubated with selenomethionine: COX19 expression
Method: as §1

[5] = tested on: COX7A2 (cytochrome c oxidase subunit VIIa polypeptide 2); assay: DNA microarray of embryonic chicken liver cells incubated with selenomethionine: COX7A2 expression
Method: as §1

[6] = tested on: COX8A (cytochrome c oxidase subunit VIIIA); assay: DNA microarray of embryonic chicken liver cells incubated with selenomethionine: COX8A expression
Method: as §1

C[Se]CC[C@H](N)C(=O)O [selenomethione, L-selenomethionine]
Fold Change (1 nM Se vs Control), MOCS2 [1]: 2.2 fold | Fold Change (1 nM Se vs Control), ATOX1 [2]: 1.4 fold | Fold Change (1 nM Se vs Control), COX10 [3]: 1.4 fold | Fold Change (1 nM Se vs Control), COX19 [4]: 1.3 fold | Fold Change (1 nM Se vs Control), COX7A2 [5]: 2.2 fold | Fold Change (1 nM Se vs Control), COX8A [6]: 1.5 fold

Reference: patent US20190076461A1, “MATERIALS AND METHODS FOR TREATING HYPOXIC CONDITIONS” (MitoGenetics, LLC, priority 2016, published 2019)
